Reference: article PMC9317670, “Temporal and Wash-Out Studies Identify Medicines for Malaria Venture Pathogen Box Compounds with Fast-Acting Activity against Both Trypanosoma cruzi and Trypanosoma brucei” (Microorganisms, 2022)
Like-named read-outs stand apart in the source and are kept apart here.

How the values were obtained:
T. cruzi and T.b. brucei = experiment: Speed of action and cidality classification from temporal and wash off assays; format: cell-based, Trypanosoma cruzi, Trypanosoma brucei brucei; settings: for Speed of Action (FA/SA): TBB = T.b. brucei
T.b. brucei [1] = experiment: T.b. brucei temporal viability (time-kill) assay, 48 h, PrestoBlue; format: cell-based, Trypanosoma brucei brucei; settings: for Emax: read-out: Emax 48 h T.b. brucei (converted); for IC50: read-out: IC50 48 h T.b. brucei
HEK293 cells = experiment: HEK293 cytotoxicity assay; format: cell-based, human; settings: HEK293, 72 h; NA = not active; highest dose 79 µM unless given
T.b. brucei [2] = experiment: T.b. brucei temporal viability (time-kill) assay, 24 h, PrestoBlue; format: cell-based, Trypanosoma brucei brucei; settings: for Emax: read-out: Emax 24 h T.b. brucei (converted); for IC50: read-out: IC50 24 h T.b. brucei
Description: Time-kill assays was undertaken as previously described, using the REDOX reagent PrestoBlue® [24]. […] Control compounds were added at the same concentrations at outlined for the resazurin-based assays.

[3] = test system: T.b. brucei bloodstream 427 strain parasites; experiment: T.b. brucei 72 h REDOX-based (resazurin) viability assay; format: cell-based, Trypanosoma brucei brucei; settings: for Emax / IC50 / Emax % (T.b. brucei): 72 h; for SI (T.b. brucei) HEK: selectivity index in relation to HEK293 cells; for SI (T.b. brucei) (HEP): selectivity index in relation to HEPG2 cells
[4] = test system: T. cruzi Tulahuen strain parasites in 3T3 host cells; experiment: T. cruzi 48 h image-based assay; format: cell-based, Trypanosoma cruzi; settings: for Emax % (T. cruzi) / IC50 / Emax: 48 h; for IC50: read-out: IC50 (T. cruzi); for SI (T. cruzi) 3T3: selectivity index in relation to 3T3 host cells, highest dose 3T3 73 µM; for SI (T. cruzi) HEK: selectivity index in relation to HEK293 cells; for SI (T. cruzi) (HEP): selectivity index in relation to HEPG2 cells; for Emax: read-out: Emax % (T. cruzi) (converted)
T. cruzi [5] = experiment: T. cruzi compound wash off assay (48 h with compound, wash off, 72 h without); format: cell-based, Trypanosoma cruzi; settings: T. cruzi; for IC50: read-out: IC50 Wash Off; for Fold Change of IC50, wash off vs 48 h: IC50 from 48 h incubation to IC50 following wash off and further 72 h
T. cruzi [6] = experiment: T. cruzi temporal image-based assay, 24 h exposure; format: cell-based, Trypanosoma cruzi; settings: for IC50: read-out: IC50 24 h T. cruzi
[7] = 48 h incubation, wash off, further 72 h
[8] = Trypanosoma cruzi, NA = not active at given concentration
[9] = Trypanosoma cruzi, 48 h incubation, wash off, further 72 h

Fold Change of IC50, wash off vs 48 h (T. cruzi [5])	SMILES	Speed of Action (FA/SA) (T. cruzi and T.b. brucei; TC = T. cruzi)	SI (T.b. brucei) HEK [3]	IC50 (HEK293 cells)	Emax % (T. cruzi) [4]	IC50 [4]	SI (T. cruzi) 3T3 [4]	SI (T. cruzi) HEK [4]	Emax % (T.b. brucei) [3]	IC50 [3]	further results
	C[C@@H]1[C@H](O)[C@@H](C)/C=C/C=C/C=C/C=C/C=C/C=C/C=C/[C@H](O[C@@H]2O[C@H](C)[C@@H](O)[C@H](N)[C@@H]2O)C[C@@H]2O[C@](O)(C[C@@H](O)C[C@@H](O)[C@H](O)CC[C@@H](O)C[C@@H](O)CC(=O)O[C@H]1C)C[C@H](O)[C@H]2C(=O)O [Amphotericin B, reference compound]	FA (Fast-acting (FA) = IC50 value can be determined following 24 h incubation, <10-fold difference in the IC50 value from 24 to 72 h)	>2.6								Emax (T.b. brucei [1]; Trypanosoma brucei): 100%; IC50 (T.b. brucei [1]; Trypanosoma brucei): 0.26 ± 0.0016 µM; IC50 HEK (HEK293 cells): NA at 4.0 µM (NT); Emax (T.b. brucei [2]; Trypanosoma brucei): 100%; IC50 (T.b. brucei [2]; Trypanosoma brucei): 0.88 ± 0.163 µM; Emax ([3]; Trypanosoma brucei): 100%; IC50 ([3]; Trypanosoma brucei): 1.5 ± 0.088 µM
	N=C(N)c1ccc(/N=N/Nc2ccc(C(=N)N)cc2)cc1 [Diminazene aceturate, reference compound]	FA (Fast-acting (FA) = IC50 value can be determined following 24 h incubation, <10-fold difference in the IC50 value from 24 to 72 h)	>1027								Emax (T.b. brucei [1]; Trypanosoma brucei): 100%; IC50 (T.b. brucei [1]; Trypanosoma brucei): 0.07 ± 0.027 µM; IC50 HEK (HEK293 cells): NA at 38 µM (NT); Emax (T.b. brucei [2]; Trypanosoma brucei): 99%; IC50 (T.b. brucei [2]; Trypanosoma brucei): 0.21 ± 0.058 µM; Emax ([3]; Trypanosoma brucei): 100%; IC50 ([3]; Trypanosoma brucei): 0.037 ± 0.00041 µM
	CN1CCC(NCc2cccc(-c3ccc(S(=O)(=O)NCc4ccccc4)cc3)c2)CC1 [MMV 22029]		5.6	8.1 ± 0.054 µM	100%	8.2 ± 0.69 µM	1.2	1.0 (NT)	99%	1.5 ± 0.059 µM	SI (T. cruzi) HEK ([4]; listed as MMV022029): < 10; SI (T.b. brucei) HEK ([3]; listed as MMV022029): < 10
	O=C(Nc1ccc(N2CCNCC2)cc1)c1ccn2ncc(-c3cccc(Cl)c3)c2n1 [MMV 22478]		8.0	12 ± 0.39 µM	100%	5.9 ± 1.3 µM	1.04	2.03 (NT)	98%	1.5 ± 0.18 µM	SI (T. cruzi) HEK ([4]; listed as MMV022478): < 10; SI (T.b. brucei) HEK ([3]; listed as MMV022478): < 10
1.2 fold	OCCc1ccc(Nc2nccc(-c3nnc4ccccn34)n2)cc1 [MMV 028694]	SA (TC)	12	9.7 ± 0.05 µM	98%	9.4 ± 1.8 µM	>7.8	1.0 (NT)	100%	0.83 ± 0.057 µM	Emax 48 h T.b. brucei (T.b. brucei [1]): 100%; IC50 (T.b. brucei [1]): 0.71 ± 0.13 µM; Emax Wash Off (T. cruzi [5]; [7]): 98%; IC50 (T. cruzi [5]; [7]): 12 ± 1.8 µM; Emax % (T. cruzi) ([4]; listed as MMV028694): > 95%; SI (T. cruzi) 3T3 ([4]; listed as MMV028694): > 7.8; SI (T. cruzi) HEK ([4]; listed as MMV028694): 1; Emax 24 h T.b. brucei (T.b. brucei [2]): 87%; IC50 (T.b. brucei [2]): 0.7 ± 0.19 µM
	c1ccc(Oc2ccc(-c3cc(N4CCNCC4)[nH]n3)cc2)cc1 [MMV 687706]		7.4	16.2 ± 5.2 µM	99%	11 ± 0.205 µM	>6.6	1.5 (NT)	99%	2.2 ± 0.0028 µM	
1.2 fold	CN1CCN(S(=O)(=O)c2ccc(-c3ccc4c(Nc5ncc(Cl)cn5)ccnc4c3)cc2)CC1 [MMV 688283]	SA (TC)	>10 (>10)		100%	6.6 ± 1.2 µM	>11	>12 (>12)	99%	7.6 ± 0.27 µM	Emax 48 h T.b. brucei (T.b. brucei [1]): 96%; IC50 (T.b. brucei [1]): 6.2 ± 0.45 µM; Emax Wash Off (T. cruzi [5]; [7]): 100%; IC50 (T. cruzi [5]; [7]): 7.6 ± 1.5 µM; Emax % (T. cruzi) ([4]; listed as MMV688283): > 95%; SI (T. cruzi) (HEP) [4]: >12 (>12); Emax 24 h T.b. brucei (T.b. brucei [2]): 94%; IC50 (T.b. brucei [2]): 7.8 ± 0.32 µM; SI (T.b. brucei) (HEP) [3]: >10 (>10)
	N=C(N)c1ccc(-c2cc(-c3ccccc3)on2)cc1 [MMV 688514]		6.0	9.1 ± 0.46 µM	100%	4.9 ± 0.16 µM	2.7	1.9 (NT)	99%	1.5 ± 0.027 µM	SI (T. cruzi) HEK ([4]; listed as MMV688514): < 10; SI (T.b. brucei) HEK ([3]; listed as MMV688514): < 10
	CC1CCCCN1C(=O)NCCc1coc(-c2ccc(F)cc2)n1 (stereo not shown) [MMV 688797]	FA (Fast-acting (FA) = IC50 value can be determined following 24 h incubation, <10-fold difference in the IC50 value from 24 to 72 h)	>814 (>814)				>143	>154 (>154)			Speed of Action (Table 5) (T. cruzi and T.b. brucei; prioritised compounds, Fast/Slow): Fast; Emax (T. cruzi [6]; Trypanosoma cruzi): 86%; IC50 (T. cruzi [6]; [8]): 0.89 ± 0.135 µM; Emax (T.b. brucei [1]; Trypanosoma brucei): 99%; IC50 (T.b. brucei [1]; Trypanosoma brucei): 0.1 ± 0.0062 µM; IC50 (T. cruzi [5]; [9]): 0.38 ± 0.056 µM; Emax ([4]; Trypanosoma cruzi, TULAHUEN): 100%; IC50 ([4]; Trypanosoma cruzi, TULAHUEN): 0.51 ± 0.11 µM; SI (T. cruzi) (HEP) [4]: >154 (>154); Emax (T.b. brucei [2]; Trypanosoma brucei): 99%; IC50 (T.b. brucei [2]; Trypanosoma brucei): 0.15 ± 0.029 µM; Emax ([3]; Trypanosoma brucei): 99%; IC50 ([3]; Trypanosoma brucei): 0.097 ± 0.0021 µM; SI (T.b. brucei) (HEP) [3]: >814 (>814)
0.60 fold	CC1CS(=O)(=O)CCN1/N=C/c1ccc([N+](=O)[O-])o1 (stereo not shown) [Nifurtimox, reference compound]	FA (Fast-acting (FA) = IC50 value can be determined following 24 h incubation, <10-fold difference in the IC50 value from 24 to 72 h)					>149				IC50 (T. cruzi [6]; [8]): 1.03 ± 0.076 µM; IC50 (T. cruzi [5]; [9]): 0.35 ± 0.014 µM; Emax ([4]; Trypanosoma cruzi, TULAHUEN): 100%; IC50 ([4]; Trypanosoma cruzi, TULAHUEN): 0.85 ± 0.048 µM
0.36 fold	CC[C@@H]([C@H](C)O)n1ncn(-c2ccc(N3CCN(c4ccc(OC[C@@H]5CO[C@@](Cn6cncn6)(c6ccc(F)cc6F)C5)cc4)CC3)cc2)c1=O [Posaconazole, reference compound]	SA (Slow-acting (SA) = IC50 value unable to be determined following 24 h incubation (no plateau of activity, or plateau of activity is <80% or IC50 value < 10 µM), or >10-fold difference in the IC50 value from 24 to 72 h)			77%		>333				Cidal / Static / Not efficacious (T. cruzi and T.b. brucei; from wash off and 48 h Emax, TC = T. cruzi): Not efficacious (TC); IC50 24 h T. cruzi (T. cruzi [6]; NA = not active at given concentration): NA at 1 µM; Emax (T. cruzi [5]; [9]): 100%; IC50 (T. cruzi [5]; [9]): 0.0018 ± 7.8e-05 µM; Emax ([4]; Trypanosoma cruzi, TULAHUEN): 73%; IC50 ([4]; Trypanosoma cruzi, TULAHUEN): 0.0055 ± 4.1e-06 µM

SMILES	Fold Change of IC50, wash off vs 48 h (T. cruzi [5])	Speed of Action (FA/SA) (T. cruzi and T.b. brucei; TC = T. cruzi)	SI (T.b. brucei) HEK [3]	IC50 (HEK293 cells)	Emax % (T. cruzi) [4]	IC50 [4]	SI (T. cruzi) 3T3 [4]	SI (T. cruzi) HEK [4]	Emax % (T.b. brucei) [3]	IC50 [3]	further results
Cc1cc(C2=NOC(c3cc(Cl)c(F)c(Cl)c3)(C(F)(F)F)C2)ccc1C(=O)NCc1ccc2c(c1)C(C)(C)OB2O (stereo not shown) [MMV 687776]	1.0 fold	SA (TC)	3.0	13 ± 1.6 µM	100%	1.6 ± 0.38 µM	>46	8.1	99%	4.3 ± 1.3 µM	Emax 48 h T.b. brucei (T.b. brucei [1]): 99%; IC50 (T.b. brucei [1]): 4.04 ± 1.78 µM; Emax Wash Off (T. cruzi [5]; [7]): 100%; IC50 (T. cruzi [5]; [7]): 1.6 ± 0.064 µM; Emax % (T. cruzi) ([4]; listed as MMV687776): > 95%; SI (T. cruzi) 3T3 ([4]; listed as MMV687776): > 46; SI (T. cruzi) (HEP) [4]: > 50; Emax 24 h T.b. brucei (T.b. brucei [2]): 89%; IC50 (T.b. brucei [2]): 5.35 ± 0.103 µM; SI (T.b. brucei) (HEP) [3]: > 18
